GI50 and TGI data for nine compounds are collected here from PubChem BioAssay (NCI).

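Five compound concentrations were applied to cells in 96-well plates for 48 hours; endpoints were derived by simple linear interpolation of the resulting dose-response curve. GI50 marks 50% less growth. TGI marks complete inhibition of growth.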

Some test systems named below: MALME-3M melanoma; UO-31 renal; RPMI-8226 leukemia; SK-MEL-28 melanoma; A498 renal; SK-MEL-5 melanoma; 786-0 renal; TK-10 renal; SR leukemia; HL-60(TB) leukemia.
What all share (test): NCI tumour cell line growth inhibition, 48 h

For `O=c1c2cc(F)ccc2sc2c(NCCCNCCO)nc3ccc(F)cc3c12`, the GI50 with MALME-3M melanoma is 1.63 µM; with UO-31 renal it was 1.11 µM; in the test on RPMI-8226 leukemia, 2.3 µM; in the test with SK-MEL-28 melanoma it was 1.78 µM; in the test on A498 renal, 2.24 µM; in the test on SK-MEL-5 melanoma, 1.7 µM. The GI50 in the test on 786-0 renal was 1.63 µM; in the test on TK-10 renal, 1.9 µM; in the test on SR leukemia it was 3.41 µM. The TGI in the test on MALME-3M melanoma amounted to 3.15 µM; in the test on UO-31 renal it was 2.37 µM; with RPMI-8226 leukemia, 5.1 µM; in the test with SK-MEL-28 melanoma it was 3.25 µM; with A498 renal it was 7.21 µM; in the test with SK-MEL-5 melanoma, 3.15 µM. Further, the results for the TGI in the test on 786-0 renal, in the test with TK-10 renal and in the test on SR leukemia were 3.32 µM, 3.7 µM and over 100 µM, respectively.

With `CCc1ccc2cc3c(ccc4ccccc43)c3c2c1CC3`, the GI50 in the test on MALME-3M melanoma, in the test on UO-31 renal, with RPMI-8226 leukemia, in the test with SK-MEL-28 melanoma, in the test with A498 renal and with SK-MEL-5 melanoma was over 100 µM throughout. Also, the GI50 in the test with 786-0 renal, with TK-10 renal and with SR leukemia was over 100 µM each time. In addition, the TGI with MALME-3M melanoma, in the test on UO-31 renal, in the test with RPMI-8226 leukemia, with SK-MEL-28 melanoma, in the test on A498 renal and with SK-MEL-5 melanoma was over 100 µM each time. The TGI in the test on 786-0 renal, in the test with TK-10 renal and in the test with SR leukemia was over 100 µM each time.

Regarding `Nc1nc(-c2ccccn2)c(-c2ccc3ncccc3n2)s1`, the GI50 with MALME-3M melanoma, in the test with UO-31 renal, in the test on RPMI-8226 leukemia, in the test on SK-MEL-28 melanoma, in the test with A498 renal and with SK-MEL-5 melanoma was over 25 µM in each case. For the same compound, the GI50 with 786-0 renal, in the test on TK-10 renal and with HL-60(TB) leukemia was over 25 µM throughout. In addition, the TGI with MALME-3M melanoma, in the test with UO-31 renal, in the test on RPMI-8226 leukemia, in the test with SK-MEL-28 melanoma, with A498 renal and with SK-MEL-5 melanoma was over 25 µM each time. Further, the TGI in the test on 786-0 renal, in the test on TK-10 renal and in the test with HL-60(TB) leukemia was over 25 µM throughout.

In the case of `C=C(CN1CCc2ccccc2C1)c1ccc(C(=O)Nc2cccc(N)c2)cc1`, the GI50 is 15.1 µM with MALME-3M melanoma; 16 µM in the test on UO-31 renal; 16.3 µM with RPMI-8226 leukemia; 31.1 µM in the test with SK-MEL-28 melanoma; 20.5 µM in the test on A498 renal; 13.6 µM with SK-MEL-5 melanoma. Besides, the GI50 with 786-0 renal was 17.2 µM; in the test on TK-10 renal it was 27.3 µM; in the test with SR leukemia it was 11.7 µM. The TGI in the test on MALME-3M melanoma is 34.1 µM; with UO-31 renal, 59.7 µM; in the test with RPMI-8226 leukemia, over 100 µM; with SK-MEL-28 melanoma, over 100 µM; with A498 renal, 45.5 µM; in the test on SK-MEL-5 melanoma, 28.3 µM. For the same compound, the results for the TGI with 786-0 renal, in the test with TK-10 renal and with SR leukemia were 46.6 µM, 92.5 µM and 54.8 µM, respectively.

For the compound `Cc1ccccc1C1N=C2Oc3ccccc3C=C2C(=O)N1` (configuration not stated), the GI50 in the test with UO-31 renal was 7.5 µM; in the test with RPMI-8226 leukemia, 62.9 µM; in the test with SK-MEL-28 melanoma, 4.57 µM; in the test with A498 renal, 0.347 µM; in the test on SK-MEL-5 melanoma, 0.674 µM; in the test on 786-0 renal, 14.1 µM. Also, the GI50 in the test on TK-10 renal is 8.06 µM; with SR leukemia, 14.5 µM; with HL-60(TB) leukemia it was 2.42 µM. Besides, the TGI with UO-31 renal was over 100 µM; in the test with RPMI-8226 leukemia it was over 100 µM; in the test with SK-MEL-28 melanoma, over 100 µM; with A498 renal it was 2.58 µM; in the test with SK-MEL-5 melanoma it was over 100 µM; in the test on 786-0 renal it was over 100 µM. The TGI was over 100 µM with TK-10 renal, over 88.3 µM with SR leukemia and 17.7 µM in the test with HL-60(TB) leukemia.

As to `OC1(c2ccccc2)c2ccccc2N(c2ccccc2)c2ccc(Cl)cc21` (configuration not stated), the GI50 is 0.237 µM with MALME-3M melanoma; 0.38 µM in the test with UO-31 renal; 0.216 µM in the test on RPMI-8226 leukemia; 0.193 µM in the test with SK-MEL-28 melanoma; 0.198 µM with A498 renal; 0.186 µM with SK-MEL-5 melanoma. Also, the values for the GI50 in the test on 786-0 renal, in the test with TK-10 renal and in the test with HL-60(TB) leukemia were 0.253 µM, 0.3 µM and 0.251 µM, respectively. Moreover, the TGI amounted to 0.643 µM in the test on MALME-3M melanoma; 1.51 µM in the test on UO-31 renal; 0.862 µM in the test with RPMI-8226 leukemia; 0.434 µM with SK-MEL-28 melanoma; 0.765 µM in the test on A498 renal; 0.432 µM with SK-MEL-5 melanoma. In addition, the TGI with 786-0 renal came out at 0.68 µM; in the test on TK-10 renal, 1.01 µM; in the test with HL-60(TB) leukemia, 0.739 µM.

With `C=CN(C(=O)N1CCN(c2cc3c(cc2F)c(=O)c(C(=O)O)cn3C2CC2)CC1)c1nc(-c2ccc(C)cc2)cs1`, the GI50 was 3.35 µM in the test on MALME-3M melanoma; 0.53 µM in the test on RPMI-8226 leukemia; 4.49 µM with SK-MEL-28 melanoma; 0.333 µM in the test with 786-0 renal; 3.89 µM with TK-10 renal; 2.15 µM with SR leukemia. The TGI with MALME-3M melanoma is over 100 µM; in the test on RPMI-8226 leukemia, over 100 µM; in the test with SK-MEL-28 melanoma, over 100 µM; in the test on 786-0 renal, 10.5 µM; in the test with TK-10 renal, over 100 µM; in the test on SR leukemia, over 100 µM.

Take `O=P(c1ccccc1)(c1ccccc1)C1CC=C2CCCCCC2C1` (configuration not stated): the TGI with MALME-3M melanoma is over 100 µM; in the test with UO-31 renal, 52.7 µM; in the test on RPMI-8226 leukemia, 42.7 µM; with SK-MEL-28 melanoma, over 10 µM; in the test with A498 renal it was 97.7 µM; in the test on SK-MEL-5 melanoma, 46.1 µM. Also, the results for the TGI in the test with 786-0 renal, in the test on TK-10 renal and in the test with HL-60(TB) leukemia were 51 µM, over 100 µM and 58.9 µM, respectively.

In the case of `CC(=O)[O-].O=C([CH-]C(=O)c1ccccc1)c1ccccc1.O=C([CH-]C(=O)c1ccccc1)c1ccccc1.[Dy+3]`, the GI50 with MALME-3M melanoma is 21.8 µM; in the test on UO-31 renal, 8.35 µM; with RPMI-8226 leukemia, 7.87 µM; in the test on SK-MEL-28 melanoma, 15.4 µM; in the test with A498 renal, 15.5 µM; with SK-MEL-5 melanoma it was 6.5 µM. The GI50 with 786-0 renal is 12 µM; with TK-10 renal it was 27.4 µM; in the test on HL-60(TB) leukemia, 2.84 µM. In addition, the TGI was 67.9 µM in the test with MALME-3M melanoma; 32.5 µM in the test with UO-31 renal; 34.7 µM in the test on RPMI-8226 leukemia; 51.4 µM in the test with SK-MEL-28 melanoma; 61.5 µM in the test on A498 renal; 20.9 µM in the test with SK-MEL-5 melanoma. In addition, the TGI in the test with 786-0 renal was 35.9 µM; in the test on TK-10 renal, 86.5 µM; in the test on HL-60(TB) leukemia, 11.5 µM.
